Assay results taken from patent US20090048301A1 (IMCLONE SYSTEMS INCORPORATED, priority 2003, published 2009).
Values joined by “and” are separate entries in the source; they are usually repeats but may differ in a detail not shown here. Equal entries are not always repeated. Where two headings read alike, the source gives them in different places.

Assays:
bovine tubulin = assay: In vitro tubulin polymerization assay (turbidity at 340 nm); type: biochemical; conditions: 10 μM compound, 30 minute data point, vs 1% DMSO control
Method in brief: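 Percent inhibition derives from turbidity (340 nm) at 30 min relative to 1% DMSO controls, read every minute at 37° C. Polymerization mix: 3 mg/ml bovine tubulin, <3% MAPs, in PIPES pH 7 G-PEM with 1 mM GTP, 1 mM MgCl2, 5% glycerol; enhancers also detectable.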

[1] = tested on: A431, human epidermoid carcinoma cells; assay: Cell cycle analysis (FACS), mitotic arrest in G2/M; type: cell-based; conditions: read-out: FACS Assay: concentration required to achieve inhibition in FACS assay
Method in brief: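 A431 cells, 500,000/well at treatment, exposed to compounds at 0.01–1 μM final (0.1% DMSO) for 24 h. Ethanol-fixed cells RNase-treated (1 μg/ml, 37° C., 15 min), stained with propidium iodide (50 μg/ml, 30 min, RT). DNA ploidy by flow cytometry; mitotic arrest scored as G2/M accumulation.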

| Compound | Tubulin Assay: percent inhibition at 10 μM based on 30 minute data (bovine tubulin) | minimal effective concentration ([1]; Homo sapiens, A-431, 24 h) | minimal effective concentration ([1]; 24 hours) |
| --- | --- | --- | --- |
| COc1cccc(CNc2ncccc2-c2nnc(Nc3ccc4c(c3)OCO4)o2)c1 [Compound 156, {3-[5-(Benzo[1,3]dioxol-5-ylamino)-[1,3,4]oxadiazol-2-yl]-pyridin-2-yl}-(3-methoxy-benzyl)-amine] | 64% | 1 µM |  |
| COc1ccc(CNc2ncccc2-c2nnc(Nc3ccc4c(c3)OCO4)o2)cc1 [Compound 157, {3-[5-(Benzo[1,3]dioxol-5-ylamino)-[1,3,4]oxadiazol-2-yl]-pyridin-2-yl}-(4-methoxy-benzyl)-amine] | 92% | 1 µM |  |
| COc1cccc(CNc2ncccc2-c2nnc(Nc3ccc4c(c3)OCCO4)o2)c1 [Compound 159, {3-[5-(2,3-Dihydro-benzo[1,4]dioxin-6-ylamino)-[1,3,4]oxadiazol-2-yl]-pyridin-2-yl}-(3-methoxy-benzyl)-amine] | 87% | 0.075 µM |  |
| COc1ccc(CNc2ncccc2-c2nnc(Nc3ccc4c(c3)OCCO4)o2)cc1 [Compound 160, {3-[5-(2,3-Dihydro-benzo[1,4]dioxin-6-ylamino)-[1,3,4]oxadiazol-2-yl]-pyridin-2-yl}-(4-methoxy-benzyl)-amine] | 89% | 0.1 µM |  |
| Fc1ccc(CNc2ncccc2-c2nnc(Nc3ccc4c(c3)OCCO4)o2)cc1F [Compound 161, (3,4-Difluoro-benzyl)-{3-[5-(2,3-dihydro-benzo[1,4]dioxin-6-ylamino)-[1,3,4]oxadiazol-2-yl]-pyridin-2-yl}-amine] | 82% | 0.1 µM |  |
| c1cncc(CNc2ncccc2-c2nnc(Nc3ccc4c(c3)OCCO4)o2)c1 [Compound 162, {3-[5-(2,3-Dihydro-benzo[1,4]dioxin-6-ylamino)-[1,3,4]oxadiazol-2-yl]-pyridin-2-yl}-pyridin-3-ylmethyl-amine] | 86% | 0.01 µM |  |
| c1coc(CNc2ncccc2-c2nnc(Nc3ccc4c(c3)OCO4)o2)c1 [Compound 163, {3-[5-(Benzo[1,3]dioxol-5-ylamino)-[1,3,4]oxadiazol-2-yl]-pyridin-2-yl}-furan-2-ylmethyl-amine] | 90% | 1 µM |  |
| c1coc(CNc2ncccc2-c2nnc(Nc3ccc4c(c3)OCCO4)o2)c1 [Compound 164, {3-[5-(2,3-Dihydro-benzo[1,4]dioxin-6-ylamino)-[1,3,4]oxadiazol-2-yl]-pyridin-2-yl}-furan-2-ylmethyl-amine] | 73% |  | 0.1 µM |
| COc1ccc(CNc2ncccc2-c2nnc(Nc3ccc4c(c3)OCCO4)o2)cc1OC [Compound 165, {3-[5-(2,3-Dihydro-benzo[1,4]dioxin-6-ylamino)-[1,3,4]oxadiazol-2-yl]-pyridin-2-yl}-(3,4-dimethoxy-benzyl)-amine] | 86% | 0.1 µM |  |
| COc1ccc(CNc2ncccc2-c2nnc(Nc3ccc(OC)c(OC)c3)o2)cc1OC [Compound 166, (3,4-Dimethoxy-benzyl)-{3-[5-(3,4-dimethoxy-phenylamino)-[1,3,4]oxadiazol-2-yl]-pyridin-2-yl}-amine] | 53% | 1 µM |  |
| Fc1cccc(CNc2ncccc2-c2nnc(Nc3ccc4c(c3)OCCO4)o2)c1 [Compound 168, {3-[5-(2,3-Dihydro-benzo[1,4]dioxin-6-ylamino)-[1,3,4]oxadiazol-2-yl]-pyridin-2-yl}-(3-fluoro-benzyl)-amine] | 95% | 0.1 µM |  |
| Fc1ccc(CNc2ncccc2-c2nnc(Nc3ccc4c(c3)OCCO4)o2)cc1 [Compound 169, {3-[5-(2,3-Dihydro-benzo[1,4]dioxin-6-ylamino)-[1,3,4]oxadiazol-2-yl]-pyridin-2-yl}-(4-fluoro-benzyl)-amine] | 82% | 0.1 µM |  |
| c1cnc(N2CCOCC2)c(-c2nnc(Nc3ccc4c(c3)OCCO4)o2)c1 [Compound 170, (2,3-Dihydro-benzo[1,4]dioxin-6-yl)-[5-(2-morpholin-4-yl-pyridin-3-yl)-[1,3,4]oxadiazol-2-yl]-amine] | 55% | 0.1 µM |  |
| Fc1ccc(CNc2ncccc2-c2nnc(Nc3ccc4c(c3)OCO4)o2)cc1 [Compound 172, {3-[5-(Benzo[1,3]dioxol-5-ylamino)-[1,3,4]oxadiazol-2-yl]-pyridin-2-yl}-(4-fluoro-benzyl)-amine] | 95% and 87% | 0.1 µM |  |
| c1cnc(NCC2CCCO2)c(-c2nnc(Nc3ccc4c(c3)OCCO4)o2)c1 (stereo not drawn) [Compound 175, {3-[5-(2,3-Dihydro-benzo[1,4]dioxin-6-ylamino)-[1,3,4]oxadiazol-2-yl]-pyridin-2-yl}-(tetrahydro-furan-2-ylmethyl)-amine] | 90% | 0.1 µM |  |
| c1cnc(NCc2ccc3c(c2)OCO3)c(-c2nnc(Nc3ccc4c(c3)OCCO4)o2)c1 [Compound 195, Benzo[1,3]dioxol-5-ylmethyl-{3-[5-(2,3-dihydro-benzo[1,4]dioxin-6-ylamino)-[1,3,4]oxadiazol-2-yl]-pyridin-2-yl}-amine] | 73% | 0.01 µM |  |
| c1cnc(NCc2ccc3c(c2)OCCO3)c(-c2nnc(Nc3ccc4c(c3)OCO4)o2)c1 [Compound 196, {3-[5-(Benzo[1,3]dioxol-5-ylamino)-[1,3,4]oxadiazol-2-yl]-pyridin-2-yl}-(2,3-dihydro-benzo[1,4]dioxin-6-ylmethyl)-amine] | 93% | 1 µM |  |
| COc1cc(Nc2nnc(-c3cccnc3NCc3ccco3)o2)cc(OC)c1OC [Compound 197, Furan-2-ylmethyl-{3-[5-(3,4,5-H trimethoxy-phenylamino)-[1,3,4]oxadiazol-2-yl]-pyridin-2-yl}-amine] | 66% | 1 µM |  |
| c1cnc(NCc2ccc3c(c2)CCO3)c(-c2nnc(Nc3ccc4c(c3)OCO4)o2)c1 [Compound 198, {3-[5-(Benzo[1,3]dioxol-5-ylamino)-[1,3,4]oxadiazol-2-yl]-pyridin-2-yl}-(2,3-dihydro-benzofuran-5-ylmethyl)-amine] | 87% | 0.1 µM |  |
| c1cnc(NCc2ccc3c(c2)CCO3)c(-c2nnc(Nc3ccc4c(c3)OCCO4)o2)c1 [Compound 199, {3-[5-(2,3-Dihydro-benzo[1,4]dioxin-6-ylamino)-[1,3,4]oxadiazol-2-yl]-pyridin-2-yl}-(2,3-dihydro-benzofuran-5-ylmethyl)-amine] | 88% | 0.1 µM |  |
| c1cnc(NCC2COCCO2)c(-c2nnc(Nc3ccc4c(c3)OCO4)o2)c1 (stereo not drawn) [Compound 202, {3-[5-(Benzo[1,3]dioxol-5-ylamino)-[1,3,4]oxadiazol-2-yl]-pyridin-2-yl}-[1,4]dioxan-2-ylmethyl-amine] | 89% | 0.1 µM |  |
